Laboratory results reported in patent publication US20020168329A1, “Skin composition” (Unilever Home & Personal Care USA, Division of Conopco, Inc., priority 2001, published 2002).

Test system: Volunteers with oily skin type
Experiment: Oil (sebum) secretion on the skin measured with Sebumeter SM 810 PC after one week of twice-daily cream use
Format: in vivo, human
Conditions: after 2 hours; conclusion from Table 1
Description: Method of Testing Oil Secretion:
The above mentioned formulations (Examples 1 to 4) were tested for their efficacy in reducing the oil secretion on the skin using a sebumeter by the following protocol.
Volunteers with oily skin type were recruited. The initial sebum was measured with Sebumeter SM 810 PC on the cheeks, and the selection was made such that they had approximately similar sebum profile. The panellists were asked to use 0.5 g of the assigned cream on their face twice a day, for one week. The sebum profile was measured on the 8th day. The panellists washed their face and the sebum secretion on the skin surface after 2 hours was measured using the Sebumeter SM 810 PC on the cheeks.
Sebumeter is a device for measuring sebum content on skin surface. A piece of plastic film (wound in the form of a cassette) is kept on the skin for 30 sec. By this means the […] measuring area of the plastic film becomes transparent due to absorbed sebum. […] Sebumeter SM 810 PC immediately indicates sebum content between 50 & 300 μgm/cm^2 % sebum reduction is calculated.
The protocol to measure the % reduction in sebum secretion is as per the procedure described above. The samples of creams described in Examples 4, 5 and 6 were tested for their efficacy in reducing the sebum secretion and the data are presented in Table 3.

Row | Structure (SMILES) | effect in reducing oil secretion on the skin (in words)
1 | NC(=O)c1cccnc1 [niacinamide] | significant effect in reducing oil secretion on the skin
2 | CCCCCCCCCCCCCOC(=O)c1ccccc1O [tridecyl salicylate] | significant effect in reducing oil secretion on the skin
